Results reported in patent US8183251B2, “Hydantoin compounds and pharmaceutical compositions thereof” (AstraZeneca AB, priority 2006, dated 2012).
Where a name gives a salt, the structure may show the parent alone.

Columns and labels:
Format in all cases: biochemical
[1] = target: T1, human MMP12 catalytic domain (Homo sapiens, UniProt P39900); assay: Isolated enzyme assay MMP12 (fluorogenic substrate); details: recombinant human MMP12 catalytic domain, 60 minutes at room temperature; read-out: hMMP12 IC50
T1 construct: Recombinant human MMP12 catalytic domain; made in house
Protocol: Recombinant human MMP12 catalytic domain may be expressed and purified as described by Parkar A. A. et al, (2000), Protein Expression and Purification, 20, 152. The purified enzyme can be used to monitor inhibitors of activity as follows: MMP12 (50 ng/ml final concentration) is incubated for 60 minutes at room temperature with the synthetic substrate Mca-Pro-Cha-Gly-Nva-His-Ala-Dpa-NH2 (10 μM) in assay buffer (0.1M “Tris-HCl” (trade mark) buffer, pH 7.3 containing 0.1M NaCl, 20 mM CaCl2, 0.020 mM ZnCl and 0.05% (w/v) “Brij 35” (trade mark) detergent) in the presence (10 concentrations) or absence of inhibitors. Activity is determined by measuring the fluorescence at λex 320 nm and λem 405 nm. Percent inhibition is calculated as follows: % Inhibition is equal to the [Fluorescenceplus inhibitor−Fluorescencebackground] divided by the [Fluorescenceminus inhibitor−Fluorescencebackground].

[2] = tested on: human MMP9 catalytic domain; assay: Isolated enzyme assay MMP9 (fluorogenic substrate); details: IC50 (MMP9) divided by IC50 (MMP12)
Protocol: Recombinant human MMP9 catalytic domain was expressed and then purified by Zn chelate column chromatography followed by hydroxamate affinity column chromatography. The enzyme can be used to monitor inhibitors of activity as follows: MMP9 (5 ng/ml final concentration) is incubated for 30 minutes at RT with the synthetic substrate Mca-Pro-Cha-Gly-Nva-His-Ala-Dpa-NH2 (5 μM) in assay buffer (0.1M “Tris-HCl” (trade mark) buffer, pH 7.3 containing 0.1M NaCl, 20 mM CaCl2, 0.020 mM ZnCl and 0.05% (w/v) “Brij 35” (trade mark) detergent) in the presence (10 concentrations) or absence of inhibitors. Activity is determined by measuring the fluorescence at λex 320 nm and λem 405 nm. Percent inhibition is calculated as follows: […]
% Inhibition is equal to the [Fluorescenceplus inhibitor−Fluorescencebackground] divided by the [Fluorescenceminus inhibitor−Fluorescencebackground].
A protocol for testing against other matrix metalloproteinases, including MMP9, using expressed and purified pro MMP is described, for instance, by C. Graham Knight et al., (1992) FEBS Lett., 296 (3), 263-266.

hMMP8 = target: T2, hMMP8 (Homo sapiens, UniProt P22894); assay: Isolated enzyme assay MMP8 (fluorogenic substrate); details: IC50 (MMP8) divided by IC50 (MMP12)
T2 construct: purchased Calbiochem
Protocol: Purified pro-MMP8 is purchased from Calbiochem. The enzyme (at 10 μg/ml) is activated by p-amino-phenyl-mercuric acetate (APMA) at 1 mM for 2.5 h, 35° C. The activated enzyme can be used to monitor inhibitors of activity as follows: MMP8 (200 ng/ml final concentration) is incubated for 90 minutes at 35° C. (80% H2O) with the synthetic substrate Mca-Pro-Cha-Gly-Nva-His-Ala-Dpa-NH2 (12.5 μM) in assay buffer (0.1M “Tris-HCl” (trade mark) buffer, pH 7.5 containing 0.1M NaCl, 30 mM CaCl2, 0.040 mM ZnCl and 0.05% (w/v) “Brij 35” (trade mark) detergent) in the presence (10 concentrations) or absence of inhibitors. Activity is determined by measuring the fluorescence at λex 320 nm and λem 405 nm. Percent inhibition is calculated as follows: % Inhibition is equal to the [Fluorescenceplus inhibitor−Fluorescencebackground] divided by the [Fluorescenceminus inhibitor−Fluorescencebackground].

[3] = target: T3, human MMP14 catalytic domain (Homo sapiens, UniProt P50281); assay: Isolated enzyme assay MMP14 (fluorogenic substrate); details: IC50 (MMP14) divided by IC50 (MMP12)
T3 construct: Recombinant human MMP14 catalytic domain; made in house
Protocol: Recombinant human MMP14 catalytic domain may be expressed and purified as described by Parkar A. A. et al, (2000), Protein Expression and Purification, 20, 152. The purified enzyme can be used to monitor inhibitors of activity as follows: MMP14 (10 ng/ml final concentration) is incubated for 60 minutes at room temperature with the synthetic substrate Mca-Pro-Cha-Gly-Nva-His-Ala-Dpa-NH2 (10 μM) in assay buffer (0.1M “Tris-HCl” (trade mark) buffer, pH 7.5 containing 0.1M NaCl, 20 mM CaCl2, 0.020 mM ZnCl and 0.05% (w/v) “Brij 35” (trade mark) detergent) in the presence (5 concentrations) or absence of inhibitors. Activity is determined by measuring the fluorescence at λex 320 nm and λem 405 nm. Percent inhibition is calculated as follows: % Inhibition is equal to the [Fluorescenceplus inhibitor−Fluorescencebackground] divided by the [Fluorescenceminus inhibitor−Fluorescencebackground].

[4] = target: T4, human MMP19 catalytic domain (Homo sapiens, UniProt Q99542); assay: Isolated enzyme assay MMP19 (fluorogenic substrate); details: IC50 (MMP19) divided by IC50 (MMP12)
T4 construct: Recombinant human MMP19 catalytic domain; made in house
Protocol: Recombinant human MMP19 catalytic domain may be expressed and purified as described by Parkar A. A. et al, (2000), Protein Expression and Purification, 20:152. The purified enzyme can be used to monitor inhibitors of activity as follows: MMP19 (40 ng/ml final concentration) is incubated for 120 minutes at 35° C. with the synthetic substrate Mca-Pro-Leu-Ala-Nva-Dpa-Ala-Arg-NH2 (5 μM) in assay buffer (0.1M “Tris-HCl” (trade mark) buffer, pH 7.3 containing 0.1M NaCl, 20 mM CaCl2, 0.020 mM ZnCl and 0.05% (w/v) “Brij 35” (trade mark) detergent) in the presence (5 concentrations) or absence of inhibitors. Activity is determined by measuring the fluorescence at λex 320 nm and λem 405 nm. Percent inhibition is calculated as follows: % Inhibition is equal to the [Fluorescenceplus inhibitor−Fluorescencebackground] divided by the [Fluorescenceminus inhibitor−Fluorescencebackground].

T4 sequence (Q99542 98-256 limits assumed): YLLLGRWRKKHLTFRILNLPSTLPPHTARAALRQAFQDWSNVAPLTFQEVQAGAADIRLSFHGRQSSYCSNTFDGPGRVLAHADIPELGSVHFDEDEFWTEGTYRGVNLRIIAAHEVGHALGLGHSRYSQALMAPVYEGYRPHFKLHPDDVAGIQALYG
T2 sequence (P22894 101-467): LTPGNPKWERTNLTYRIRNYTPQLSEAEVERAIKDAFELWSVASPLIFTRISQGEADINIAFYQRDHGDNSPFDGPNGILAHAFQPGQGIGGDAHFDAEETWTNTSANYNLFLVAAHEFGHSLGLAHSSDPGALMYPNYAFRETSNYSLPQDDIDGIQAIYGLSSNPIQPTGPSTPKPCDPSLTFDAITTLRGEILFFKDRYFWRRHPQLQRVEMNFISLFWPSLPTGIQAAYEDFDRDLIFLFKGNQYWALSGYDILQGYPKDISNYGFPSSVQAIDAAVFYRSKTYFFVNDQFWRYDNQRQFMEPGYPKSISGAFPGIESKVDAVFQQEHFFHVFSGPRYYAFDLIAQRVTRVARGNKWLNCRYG
T1 sequence (P39900 106-263 limits assumed): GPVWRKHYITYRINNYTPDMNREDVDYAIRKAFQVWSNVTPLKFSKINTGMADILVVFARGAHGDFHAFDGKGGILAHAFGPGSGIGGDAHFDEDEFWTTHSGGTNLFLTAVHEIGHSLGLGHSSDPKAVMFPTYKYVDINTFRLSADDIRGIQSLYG

CN(Cc1ccc(Oc2cnc(C(F)(F)F)nc2)cc1)S(=O)(=O)C[C@@]1(C2CC2)NC(=O)NC1=O [Example 4, 1-[(4S)-4-Cyclopropyl-2,5-dioxoimidazolidin-4-yl]-N-methyl-N-[(4-{[2-(trifluoromethyl)pyrimidin-5-yl]oxy}phenyl)methyl]methanesulfonamide]
IC50 [1]: 8.3 nM
Selectivity for inhibition of hMMP12 over: hMMP9 [2]: >795
Selectivity for inhibition of hMMP12 over: hMMP8 (hMMP8): >1168
Selectivity for inhibition of hMMP12 over: hMMP14 [3]: >3560
Selectivity for inhibition of hMMP12 over: hMMP19 [4]: >2882

CN(Cc1ccc(Oc2cnc(C3CC3)nc2)cc1)S(=O)(=O)C[C@@]1(C2CC2)NC(=O)NC1=O [Example 2, 1-[(4S)-4-Cyclopropyl-2,5-dioxoimidazolidin-4-yl]-N-({4-[(2-cyclopropylpyrimidin-5-yl)oxy]phenyl}methyl)-N-methylmethanesulfonamide]
IC50 [1]: 4.3 nM
Selectivity for inhibition of hMMP12 over: hMMP9 [2]: 1440
Selectivity for inhibition of hMMP12 over: hMMP8 (hMMP8): 2120
Selectivity for inhibition of hMMP12 over: hMMP14 [3]: >2320
Selectivity for inhibition of hMMP12 over: hMMP19 [4]: >2320

C[C@]1(CS(=O)(=O)NCc2ccc(Oc3ccccc3)cc2)NC(=O)NC1=O [reference compound]
IC50 [1]: 151 nM
Selectivity for inhibition of hMMP12 over: hMMP9 [2]: 261
Selectivity for inhibition of hMMP12 over: hMMP8 (hMMP8): 202
Selectivity for inhibition of hMMP12 over: hMMP14 [3]: >330
Selectivity for inhibition of hMMP12 over: hMMP19 [4]: >330

CCc1ncc(Oc2ccc(CN(C)S(=O)(=O)C[C@@]3(C4CC4)NC(=O)NC3=O)cc2)cn1 [Example 5, 1-[(4S)-4-Cyclopropyl-2,5-dioxoimidazolidin-4-yl]-N-({4-[(2-ethylpyrimidin-5-yl)oxy]phenyl}methyl)-N-methylmethanesulfonamide]
IC50 [1]: 17 nM
Selectivity for inhibition of hMMP12 over: hMMP9 [2]: 523
Selectivity for inhibition of hMMP12 over: hMMP8 (hMMP8): 417
Selectivity for inhibition of hMMP12 over: hMMP14 [3]: >588
Selectivity for inhibition of hMMP12 over: hMMP19 [4]: >588

Cc1ncc(Oc2ccc(CN(C)S(=O)(=O)C[C@@]3(C4CC4)NC(=O)NC3=O)cc2)cn1 [Example 3, 1-[(4S)-4-Cyclopropyl-2,5-dioxoimidazolidin-4-yl]-N-methyl-N-({4-[(2-methylpyrimidin-5-yl)oxy]phenyl}methyl)methanesulfonamide]
IC50 [1]: 14 nM
Selectivity for inhibition of hMMP12 over: hMMP9 [2]: 857
Selectivity for inhibition of hMMP12 over: hMMP8 (hMMP8): >628
Selectivity for inhibition of hMMP12 over: hMMP14 [3]: >7142
Selectivity for inhibition of hMMP12 over: hMMP19 [4]: >2800

O=C1NC(=O)[C@](CS(=O)(=O)NCc2ccc(Oc3cnc(C(F)(F)F)nc3)cc2)(C2CC2)N1 [Example 6, 1-[(4S)-4-Cyclopropyl-2,5-dioxoimidazolidin-4-yl]-N-[(4-{[2-(trifluoromethyl)pyrimidin-5-yl]oxy}benzyl)]methane sulfonamide]
IC50 [1]: 63.7 nM
Selectivity for inhibition of hMMP12 over: hMMP9 [2]: 1530
Selectivity for inhibition of hMMP12 over: hMMP8 (hMMP8): 657

CN(Cc1ccc(Oc2cncnc2)cc1)S(=O)(=O)C[C@@]1(C2CC2)NC(=O)NC1=O [Example 1, 1-[(4S)-4-Cyclopropyl-2,5-dioxoimidazolidin-4-yl]-N-methyl-N-{[4-(pyrimidin-5-yloxy)phenyl]methyl}methanesulfonamide trifluoroacetic acid salt]
IC50 [1]: 19 nM
Selectivity for inhibition of hMMP12 over: hMMP9 [2]: >525
Selectivity for inhibition of hMMP12 over: hMMP8 (hMMP8): 320
Selectivity for inhibition of hMMP12 over: hMMP14 [3]: >525
Selectivity for inhibition of hMMP12 over: hMMP19 [4]: >525
